Source: patent US20250057808A1, “COMPOSITION COMPRISING BETA LACTAM FOR TREATING ALCOHOL DEPENDENCE AND ALCOHOL ASSOCIATED DISEASES OR CONDITIONS” (Temple University of the Commonwealth System of Higher …, priority 2023, published 2025)
Entries after “also recorded” stand apart in the source; their conditions may differ. Where two headings read alike, the source gives them in different places.

How the values were obtained:
fat content in the liver = assay: Liver Oil Red O staining (fat content); type: in vivo, P rats; conditions: MC-100093 50 mg/kg or ceftriaxone 200 mg/kg i.p. 5 days, control, ethanol, ethanol-CEF groups
Protocol: To measure the fat content in the liver sections, we used Oil Red O (Sigma, CAS Number 1320-06-5) staining on 10 μm thick formalin-fixed liver sections and placed in slides for further staining. The slides were stained with freshly prepared Oil Red O working solution 15 minutes then rinsed with 60% isopropanol. Slides were then rinsed with distilled water and mounted in aqueous mounting media and prepared for imaging. The degree of Oil Red O staining was determined at 20× magnification using a color video camera attached to an Olympus VS120 slide scanning microscope. Olympus OlyVIA software was used to analyze the images. The lipid droplets were quantified using Image J pro (NIH). Data are presented as the mean+SEM of the Oil Red O staining for each group.
All statistical analyses were conducted with Graphpad Prism software, with p-values of 0.05 or less being statistically significant. We performed a two-way (mixed model) ANOVA followed by Bonferroni multiple comparison post-hoc test to analyze 24 h ethanol consumption, 24 h water consumption, and daily body weight. For the Western blot and oil red O staining analysis, we performed one-way ANOVA with Newman-Keuls as a post hoc multiple comparison test to measure differences between groups as a percentage (relative to control values).

[1] = cited from earlier work
xCT = assay: Immunoblot xCT in mPFC-IL, mPFC-PL, NAc-core, NAc-shell (section B); type: in vivo, Male and female alcohol-preferring (P) rats; conditions: 100 mg/kg i.p. 5 days
Protocol: After 24 hours of receiving the last injection, rats were euthanized by CO2 inhalation followed by decapitation with a guillotine. Brains were harvested and immediately frozen on dry ice and stored at −80° C. Cryostat (Leica) was used to isolate the mPFC subregions (mPFC-IL and mPFC-PL), and subregions of the NAc (NAc-core and NAc-shell). Brains were micro-punctured using the stereotaxic coordinates following the Rat Brain Atlas. The isolated brain regions were stored at −80° C. for subsequent protein detection using Western Blot assay.
Immunoblot assays were performed to determine the expression of GLT-1, xCT and β-tubulin in mPFC-IL, mPFC-PL, NAc-core, and NAc-shell of all groups as described previously. Briefly, brain samples were homogenized in lysis buffer supplemented with protease inhibitor and total protein was quantified using protein assay (Bio-Rad, Hercules, CA, USA). Equal amount of the samples was loaded on polyacrylamide gel (10-20%).
Subsequently, proteins were transferred on a PVDF membrane and blocked with 5% milk in Tris-buffered saline Tween-20 (1×TBST) for 30 minutes at room temperature. Membranes were then incubated overnight at 4° C. with one of the following antibodies: rabbit anti-GLT-1 (1:1000, Abcam, AB41621), and/or rabbit anti-xCT (1:1000, Abcam, AB175186). Mouse anti-β-tubulin (1:1000; Cell Signaling D71G5) was used as a loading control antibody. On the following day, membranes were washed five times with 1×TBST followed by incubation with appropriate secondary antibody (1:4000) for 60 minutes at room temperature. Chemiluminescent reagents (Super Signal West Pico, Pierce Inc.) were used to detect proteins using a ChemiDoc imaging system (BioRad, USA).
GLT-1 and xCT expression were normalized against β-tubulin, a control loading protein. Imaging System and ImageJ software version 1.53a were used to quantify and analyze the expression of GLT-1 and xCT in the subregions of the mPFC and NAc. Data from water-control group were represented as 100% and all other values were expressed relative to this control to evaluate the changes in protein expression.
The ratios for treated animals in the ethanol/saline and ethanol/MC-100093 groups were normalized to the mean ratios for the control group (water/saline group). The control ratio was set at 100, and the results from each of the treated groups were expressed as a percentage relative to the water/saline group value of 100%. We normalized the ethanol/saline and ethanol/MC-100093 groups data to water/saline group to reduce any differences of contrast with Western blots for each set of groups (control/water/saline, ethanol/saline, and ethanol/MC-100093 groups).
All statistical analyses were conducted using GraphPad Prism (10). Two-way (mixed) ANOVA followed by Bonferroni multiple comparison post-hoc test was performed to analyze daily ethanol intake, average daily water intake and body weight. One-way ANOVA followed by Newman-Keuls post hoc tests were used to analyze Western blot data. All statistical analyses data were reported as a p<0.05 of significance.

[2] = rodent liver microsomes in vitro; cited from earlier work
[3] = human liver microsomes in vitro; cited from earlier work
[4] = female P rats, vs ethanol-saline and water-saline

## C[C@@H](O)[C@H]1C(=O)N[C@@H]1[C@@H](C)C(=O)N1CCN(C)CC1 [MC-100093]
Fat content in the liver
  Liver fat content (Oil Red O stained fat droplets): no significant difference in fat content between control, ethanol-MC, and ethanol-CEF groups; also recorded: significantly higher fat droplet content in ethanol group (p<0.05) compared to control, ethanol-MC or ethanol-CEF groups; also recorded: alleviated the liver steatosis
[1]; after intraperitoneal (i.p) injection
  Brain/plasma ratio: 14%
[1]; following oral administration
  Oral bioavailability (in words): orally bioavailable; also recorded: high oral bioavailability; also recorded: some bioavailability
[1]; intraperitoneal route
  In vivo half-life: 4.2 h
[1]; oral route
  In vivo half-life: 5.26 h
[1]; rat, in vivo
  Oxidative metabolism: no oxidative metabolism
[1]; rats
  Oral bioavailability (F): 28%
xCT; [4]
  xCT expression in the NAc-core: significant upregulation of xCT expression
  xCT expression in the NAc-shell: significant upregulation in the expression of xCT
  xCT expression in the mPFC-IL: significant upregulation in the expression of xCT
  xCT expression in the mPFC-PL: significant upregulation of the expression of xCT
xCT; female and male P rats, vs ethanol-saline groups, 100 mg/kg
  xCT expression in mPFC and NAc subregions (summary): upregulated GLT-1 and xCT expression in mPFC and NAc subregions; also recorded: upregulated xCT expression in both the NAc and the mPFC subregions in male and female P rats; also recorded: increasing GLT-1 and xCT expression in the mPFC and NAc subregions
xCT; male P rats
  xCT expression in the NAc-core: significantly increased the expression of xCT
  xCT expression in the NAc-shell: increased the expression of xCT
  xCT expression in the mPFC-IL: significantly increased the expression of xCT
  xCT expression in the mPFC-PL: significantly increased the expression of xCT
[2]
  Stability in liver microsomes: high stability
[3]
  Stability in liver microsomes: high stability
